Measurements from patent US20210254056A1, “IDENTIFICATION AND TARGETED MODULATION OF GENE SIGNALING NETWORKS” (CAMP4 THERAPEUTICS CORPORATION, priority 2017, published 2021).

Test system: hepatocytes
Experiment: RNA-seq of hepatocytes treated with Phase III failure compounds
Method: RNA-seq was performed to determine the effects of the compounds on hepatocytes.
Significance was determined by the criteria of FPKM≥0.5, a log 2(fold-change)≥1, and a […].

Cn1cc(C2=C(c3cn(C4CCN(Cc5ccccn5)CC4)c4ccccc34)C(=O)NC2=O)c2ccccc21 [Enzastaurin]
RNA-seq results, CYP2B6 expression: 0.42
RNA-seq results, CYP2C19 expression: 0.47
RNA-seq results, CYP2D6 expression: −0.28
RNA-seq results, CYP3A4 expression: 0.22
RNA-seq results, CYP7B1 expression: 0.06
RNA-seq results, CYP39A1 expression: −1.39
RNA-seq results: CYP2B6 expression: 0.34
RNA-seq results: CYP2C19 expression: 1.62
RNA-seq results: CYP2D6 expression: −0.62
RNA-seq results: CYP3A4 expression: 0.01
RNA-seq results: CYP7B1 expression: 0.26
RNA-seq results: CYP39A1 expression: −0.08
significant modulation of expression of disease genes (RNA-seq, q≤0.05, hepatocytes, genes in the value or listed in the block): significantly (q≤0.05) modulate expression
effect on disease gene expression (RNA-seq, hepatocytes): effect on expression of too many disease genes
RNA-seq results: A1BG expression (gene A1BG, hepatocytes): 0.13
RNA-seq results: AGTR1 expression (gene AGTR1, hepatocytes): −0.76
RNA-seq results: AGXT expression (gene AGXT, hepatocytes): −0.27
RNA-seq results: AHI1 expression (gene AHI1, hepatocytes): 0.25
RNA-seq results: AMPD3 expression (gene AMPD3, hepatocytes): −0.35
RNA-seq results: AMT expression (gene AMT, hepatocytes): −0.42
RNA-seq results: ANGPTL3 expression (gene ANGPTL3, hepatocytes): −2.31
RNA-seq results: ANKS4B expression (gene ANKS4B, hepatocytes): −0.71
RNA-seq results: ANKS6 expression (gene ANKS6, hepatocytes): 0.10
RNA-seq results: ANPEP expression (gene ANPEP, hepatocytes): −0.52
RNA-seq results: AOC2 expression (gene AOC2, hepatocytes): 0.11
RNA-seq results: APOA2 expression (gene APOA2, hepatocytes): −0.48
RNA-seq results: APOA5 expression (gene APOA5, hepatocytes): −0.04
RNA-seq results: APOB expression (gene APOB, hepatocytes): −0.19
RNA-seq results: COG5 expression (gene COG5, hepatocytes): 0.35
RNA-seq results: COG6 expression (gene COG6, hepatocytes): 0.23
RNA-seq results: COL1A1 expression (gene COL1A1, hepatocytes): 0.34
RNA-seq results: COX6A1 expression (gene COX6A1, hepatocytes): −1.30
RNA-seq results: CP expression (gene CP, hepatocytes): 0.80
RNA-seq results: CPS1 expression (gene CPS1, hepatocytes): 0.69
RNA-seq results: CPT1A expression (gene CPT1A, hepatocytes): −0.10
RNA-seq results: CPT2 expression (gene CPT2, hepatocytes): −0.15
RNA-seq results: CROT expression (gene CROT, hepatocytes): −0.21
RNA-seq results: CSPP1 expression (gene CSPP1, hepatocytes): −0.22
RNA-seq results: CTC1 expression (gene CTC1, hepatocytes): 0.46
RNA-seq results: CTDSP2 expression (gene CTDSP2, hepatocytes): 0.44
RNA-seq results: CTH expression (gene CTH, hepatocytes): −0.17
RNA-seq results: CTNS expression (gene CTNS, hepatocytes): 0.16
RNA-seq results: CTSF expression (gene CTSF, hepatocytes): −0.63
RNA-seq results: CTSK expression (gene CTSK, hepatocytes): 0.47
RNA-seq results: CYB5A expression (gene CYB5A, hepatocytes): −0.56
RNA-seq results: CYB5R3 expression (gene CYB5R3, hepatocytes): 0.02
RNA-seq results: CYP27A1 expression (gene CYP27A1, hepatocytes): −0.43
RNA-seq results: DAO expression (gene DAO, hepatocytes): −0.01
RNA-seq results: DBT expression (gene DBT, hepatocytes): 0.28
RNA-seq results: DCDC2 expression (gene DCDC2, hepatocytes): 0.20
RNA-seq results: DCXR expression (gene DCXR, hepatocytes): −1.16
RNA-seq results: FABP1 expression (gene FABP1, hepatocytes): −0.93
RNA-seq results: FADD expression (gene FADD, hepatocytes): −0.53
RNA-seq results: FAM111A expression (gene FAM111A, hepatocytes): 0.49
RNA-seq results: FAM111B expression (gene FAM111B, hepatocytes): 0.47
RNA-seq results: FAN1 expression (gene FAN1, hepatocytes): 0.43
RNA-seq results: FARS2 expression (gene FARS2, hepatocytes): −0.55
RNA-seq results: FASLG expression (gene FASLG, hepatocytes): 0.35
RNA-seq results: FGA expression (gene FGA, hepatocytes): −0.10
RNA-seq results: FGD1 expression (gene FGD1, hepatocytes): 0.29
RNA-seq results: FGFR2 expression (gene FGFR2, hepatocytes): 0.75
RNA-seq results: FIG4 expression (gene FIG4, hepatocytes): 0.08
RNA-seq results: FIS1 expression (gene FIS1, hepatocytes): −1.07
RNA-seq results: FTCD expression (gene FTCD, hepatocytes): −0.35
RNA-seq results: FTH1 expression (gene FTH1, hepatocytes): −0.84
RNA-seq results: FUCA1 expression (gene FUCA1, hepatocytes): −0.37
RNA-seq results: FXN expression (gene FXN, hepatocytes): −0.10
RNA-seq results: G6PC3 expression (gene G6PC3, hepatocytes): −0.60
RNA-seq results: G6PC expression (gene G6PC, hepatocytes): 0.69
RNA-seq results: G6PD expression (gene G6PD, hepatocytes): −0.23
RNA-seq results: GALK1 expression (gene GALK1, hepatocytes): −0.94
RNA-seq results: GALK2 expression (gene GALK2, hepatocytes): −0.51
RNA-seq results: GATA6 expression (gene GATA6, hepatocytes): −0.26
RNA-seq results: GATM expression (gene GATM, hepatocytes): 0.12
RNA-seq results: GBA expression (gene GBA, hepatocytes): 0.04
RNA-seq results: GBE1 expression (gene GBE1, hepatocytes): −0.07
RNA-seq results: GCH1 expression (gene GCH1, hepatocytes): −0.12
RNA-seq results: GCKR expression (gene GCKR, hepatocytes): 0.17
RNA-seq results: GCLC expression (gene GCLC, hepatocytes): 0.11
RNA-seq results: GGCX expression (gene GGCX, hepatocytes): 0.17
RNA-seq results: GHR expression (gene GHR, hepatocytes): 0.73
RNA-seq results: GJB2 expression (gene GJB2, hepatocytes): −0.07
RNA-seq results: GOSH expression (gene GOSH, hepatocytes): −1.35
RNA-seq results: RRM2B (gene RRM2B, hepatocytes): −0.08
RNA-seq results: RSAD1 (gene RSAD1, hepatocytes): 0.26
RNA-seq results: SAMHD1 (gene SAMHD1, hepatocytes): −0.34
RNA-seq results: SC5D (gene SC5D, hepatocytes): 0.23
RNA-seq results: SCARB1 (gene SCARB1, hepatocytes): −0.02
RNA-seq results: SCN9A (gene SCN9A, hepatocytes): −1.60
RNA-seq results: SDCCAG8 (gene SDCCAG8, hepatocytes): 0.08
RNA-seq results: SEPN1 (gene SEPN1, hepatocytes): −0.51
RNA-seq results: SERAC1 (gene SERAC1, hepatocytes): −0.28
RNA-seq results: SERPINA1 (gene SERPINA1, hepatocytes): 0.21
RNA-seq results: SERPING1 (gene SERPING1, hepatocytes): 0.06
RNA-seq results: SERPINI1 (gene SERPINI1, hepatocytes): −0.50
RNA-seq results: SETBP1 (gene SETBP1, hepatocytes): 0.08
RNA-seq results: SFXN4 (gene SFXN4, hepatocytes): 0.11
RNA-seq results: SLC10A1 (gene SLC10A1, hepatocytes): −0.60
RNA-seq results: SLC10A3 (gene SLC10A3, hepatocytes): 0.28
RNA-seq results: SLC10A5 (gene SLC10A5, hepatocytes): −0.77
RNA-seq results: SLC10A7 (gene SLC10A7, hepatocytes): −0.46
RNA-seq results: SLC11A2 (gene SLC11A2, hepatocytes): 0.16
RNA-seq results: SLC19A2 (gene SLC19A2, hepatocytes): 0.28
RNA-seq results: SLC19A3 (gene SLC19A3, hepatocytes): −0.67
RNA-seq results: SLC22A1 (gene SLC22A1, hepatocytes): −0.34
RNA-seq results: SLC22A5 (gene SLC22A5, hepatocytes): 0.26
RNA-seq results: SLC25A1 (gene SLC25A1, hepatocytes): −0.20
RNA-seq results: SLC25A10 (gene SLC25A10, hepatocytes): −0.01
RNA-seq results: SLC25A12 (gene SLC25A12, hepatocytes): 0.10
RNA-seq results: SLC25A13 (gene SLC25A13, hepatocytes): 0.11
RNA-seq results: SLC25A15 (gene SLC25A15, hepatocytes): −0.31
RNA-seq results: SLC25A19 (gene SLC25A19, hepatocytes): −0.01
RNA-seq results: SLC25A20 (gene SLC25A20, hepatocytes): −0.96
RNA-seq results: SLC25A32 (gene SLC25A32, hepatocytes): 0.18
